Measurements published in publication PMC5025651, “Reprofiled anthelmintics abate hypervirulent stationary-phase Clostridium difficile” (Scientific Reports, 2016).
Where a name gives a salt, the structure may show the parent alone. Read-outs that look alike come from different tables or passages of the source.

How the values were obtained:
[1] = test system: 16 C. difficile isolates; experiment: MIC by broth microdilution, summary over 16 C. difficile isolates; type: cell-based, Clostridium difficile; settings: n = 2
[2] = test system: C. difficile strain 4118 (CD4118, ATCC BAA-1870, ribotype 027); experiment: MIC by broth microdilution; type: cell-based, Clostridium difficile; settings: BHIS broth, anaerobic, 20–24 h, n = 2
[3] = test system: C. difficile isolate 20110869 (ribotype 001_072); experiment: MIC by broth microdilution; type: cell-based, Clostridium difficile; settings: Clostridioides difficile; isolate 20110869, ribotype 001_072; duplicate; read-out: MIC
[4] = test system: C. difficile isolate 20110742 (ribotype 002); experiment: MIC by broth microdilution; type: cell-based, Clostridium difficile; settings: Clostridioides difficile; isolate 20110742, ribotype 002; duplicate; read-out: MIC
[5] = test system: C. difficile isolate 20100584 (ribotype 014); experiment: MIC by broth microdilution; type: cell-based, Clostridium difficile; settings: Clostridioides difficile; isolate 20100584, ribotype 014; duplicate; read-out: MIC
[6] = test system: C. difficile isolate 20110960 (ribotype 017); experiment: MIC by broth microdilution; type: cell-based, Clostridium difficile; settings: Clostridioides difficile; isolate 20110960, ribotype 017; duplicate; read-out: MIC
[7] = test system: C. difficile isolate 20110740 (ribotype 018); experiment: MIC by broth microdilution; type: cell-based, Clostridium difficile; settings: Clostridioides difficile; isolate 20110740, ribotype 018; duplicate; read-out: MIC
[8] = test system: C. difficile isolate 20120016 (ribotype 019); experiment: MIC by broth microdilution; type: cell-based, Clostridium difficile; settings: Clostridioides difficile; isolate 20120016, ribotype 019; duplicate; read-out: MIC
[9] = test system: C. difficile isolate 20110566 (ribotype 020); experiment: MIC by broth microdilution; type: cell-based, Clostridium difficile; settings: Clostridioides difficile; isolate 20110566, ribotype 020; duplicate; read-out: MIC
[10] = test system: C. difficile isolate 20111163 (ribotype 024); experiment: MIC by broth microdilution; type: cell-based, Clostridium difficile; settings: Clostridioides difficile; isolate 20111163, ribotype 024; duplicate; read-out: MIC
[11] = test system: C. difficile isolate 20121412 (ribotype 047); experiment: MIC by broth microdilution; type: cell-based, Clostridium difficile; settings: Clostridioides difficile; isolate 20121412, ribotype 047; duplicate; read-out: MIC
[12] = test system: C. difficile isolate 20100422 (ribotype 054); experiment: MIC by broth microdilution; type: cell-based, Clostridium difficile; settings: Clostridioides difficile; isolate 20100422, ribotype 054; duplicate; read-out: MIC
[13] = test system: C. difficile isolate 20110986 (ribotype 078); experiment: MIC by broth microdilution; type: cell-based, Clostridium difficile; settings: Clostridioides difficile; isolate 20110986, ribotype 078; duplicate; read-out: MIC
[14] = test system: C. difficile isolate 20110973 (ribotype 106); experiment: MIC by broth microdilution; type: cell-based, Clostridium difficile; settings: Clostridioides difficile; isolate 20110973, ribotype 106; duplicate; read-out: MIC
[15] = test system: C. difficile isolate 20121190 (ribotype 126); experiment: MIC by broth microdilution; type: cell-based, Clostridium difficile; settings: Clostridioides difficile; isolate 20121190, ribotype 126; duplicate; read-out: MIC
[16] = test system: C. difficile isolate 20110961 (ribotype A12); experiment: MIC by broth microdilution; type: cell-based, Clostridium difficile; settings: Clostridioides difficile; isolate 20110961, ribotype A12; duplicate; read-out: MIC
[17] = test system: C. difficile strain 4118; experiment: Minimum bactericidal concentration (MBC), logarithmic- and stationary-phase cells; type: cell-based, Clostridium difficile
Description: The procedure for MBC determination was adapted from that of Alam et al.[44]. Briefly, a single overnight colony of C. difficile strain 4118 (streaked onto blood agar plate) was suspended in BHIS and grown to OD600 ~ 0.4–0.5 (logarithmic phase) or for 24 h (stationary phase). In 96-well microtiter plates, cultures were added to two-fold serial dilutions of test compounds in BHIS and incubated for 20–24 h at 37 °C in an anaerobic chamber. […] MBC measurements were performed in duplicate.

[18] = test system: C. difficile strain 4118; experiment: Time-kill kinetics against stationary-phase cultures; type: cell-based, Clostridium difficile; settings: 16× MIC (metronidazole 4 μg/mL, vancomycin 32 μg/mL), up to 24 h
Description: At t = 0, 3, 6 and 24 h, sample aliquots were withdrawn from the treated cultures and bacterial viability was scored by plating serial dilutions on BHIS agar plates. The agar plates were incubated in the anaerobic chamber for 20–24 h at 37 °C. Kinetic experiments were performed at least twice.

[19] = test system: B. breve Strain EX336960VC19; experiment: MIC by broth microdilution; type: cell-based; settings: Bifidobacterium breve; B. breve EX336960VC19; LSM broth, anaerobic; duplicate; read-out: MIC
[20] = test system: B. longum subsp. longum Strain 44B; experiment: MIC by broth microdilution; type: cell-based; settings: Bifidobacterium longum; B. longum subsp. longum 44B; LSM broth, anaerobic; duplicate; read-out: MIC
[21] = test system: C. clostridioforme ATCC 25537; experiment: MIC by broth microdilution; type: cell-based, Clostridium clostridioforme; settings: Clostridium, ATCC25537; C. clostridioforme ATCC 25537; BHIS, anaerobic; duplicate; read-out: MIC
[22] = test system: C. sporogenes ATCC 15579; experiment: MIC by broth microdilution; type: cell-based; settings: Clostridium sporogenes, ATCC15579, BHIS, anaerobic, duplicate
[23] = test system: L. johnsonii Strain 135-1-CHN; experiment: MIC by broth microdilution; type: cell-based; settings: Lactobacillus johnsonii, STRAIN1351CHN; L. johnsonii 135-1-CHN; CAMHB with 5% laked horse blood, ~48 h; duplicate; read-out: MIC
[24] = test system: B. fragilis Strain CL05T00C42; experiment: MIC by broth microdilution; type: cell-based; settings: Bacteroides fragilis
[25] = test system: B. thetaiotaomicron ATCC 29148; experiment: microbe, parasite or virus in culture; type: cell-based; settings: Bacteroides thetaiotaomicron, ATCC29148
[26] = test system: P. distasonis ATCC 8503; experiment: MIC by broth microdilution; type: cell-based; settings: Parabacteroides distasonis, ATCC8503
[27] = test system: P. nigrescens ATCC 33563; experiment: MIC by broth microdilution; type: cell-based; settings: Prevotella nigrescens, ATCC33563
[28] = test system: B. subtilis ATCC 6051; experiment: MIC by broth microdilution; type: cell-based; settings: Bacillus subtilis, ATCC6051; B. subtilis ATCC 6051; CAMHB, aerobic; duplicate; read-out: MIC
[29] = test system: S. epidermidis 1457; experiment: MIC by broth microdilution; type: cell-based; settings: Staphylococcus epidermidis; S. epidermidis 1457; CAMHB, aerobic; duplicate; read-out: MIC
[30] = test system: P. aeruginosa PAO1; experiment: MIC by broth microdilution; type: cell-based; settings: Pseudomonas aeruginosa; P. aeruginosa PAO1; CAMHB, aerobic; duplicate; read-out: MIC

With `CN[C@H](CC(C)C)C(=O)N[C@H]1C(=O)N[C@@H](CC(N)=O)C(=O)N[C@H]2C(=O)N[C@H]3C(=O)N[C@H](C(=O)N[C@H](C(=O)O)c4cc(O)cc(O)c4-c4cc3ccc4O)[C@H](O)c3ccc(c(Cl)c3)Oc3cc2cc(c3O[C@@H]2O[C@H](CO)[C@@H](O)[C@H](O)[C@H]2O[C@H]2C[C@](C)(N)[C@H](O)[C@H](C)O2)Oc2ccc(cc2Cl)[C@H]1O` [Vancomycin, vancomycin hydrochloride hydrate] the MIC50 ([1]; Clostridioides difficile, MIC at which 50% of the 16 isolates are inhibited, read-out: MIC50) was 1 µg/mL, the MIC90 ([1]; Clostridioides difficile, MIC at which 90% of the 16 isolates are inhibited, read-out: MIC90) was 2 µg/mL and the “MIC Range” value ([1]; range over 16 C. difficile isolates) was 0.5 to 2 µg/mL. The “MIC C. difficile 4118” value [2] was 2 µg/mL, the MIC ([2]; Clostridioides difficile, ATCCBAA1870, read-out: MIC C. difficile 4118) was 2 µg/mL and the MIC [3] was 1 µg/mL. For the same compound, the MIC [4] was 0.5 to 1 µg/mL, the MIC [5] was 0.5 µg/mL and the MIC [6] was 0.5 µg/mL. It also gave an MIC [7] of 1 µg/mL, an MIC [8] of 0.5 µg/mL and an MIC [9] of 0.5 µg/mL. The MIC [10] was 1 µg/mL, the MIC [11] was 1 µg/mL and the MIC [12] was 1 µg/mL. The MIC [13] was 0.5 to 1 µg/mL, the MIC [14] was 2 µg/mL and the MIC [15] was 0.5 µg/mL. For the same compound, the MIC [16] was 1 µg/mL, the MBC ([17]; Clostridioides difficile, 4118, read-out: MBClog) was 8 µg/mL and the MBC ([17]; Clostridioides difficile, 4118, read-out: MBCstat) was over 32 µg/mL. The “log reduction of CD4118 stationary-phase cells” value ([17]; at 32 μg/mL, 20–24 h) was under 3 log, the “log killing of CD4118 stationary-phase cells” value [18] was under 3 log and the MIC [19] was 0.5 µg/mL. The MIC [20] was 0.25 µg/mL, the MIC [21] was 0.5 µg/mL and the MIC [22] was 2 µg/mL. For the same compound, the MIC [23] was 0.5 µg/mL, the MIC [24] was 32 µg/mL and the MIC [25] was over 32 µg/mL. The MIC [26] was over 32 µg/mL, the MIC [27] was over 32 µg/mL and the MIC [28] was 0.13 µg/mL. For the same compound, the MIC [29] was 2 µg/mL and the MIC [30] was over 32 µg/mL.
